# Measurements taken from patent publication US20220298135A1, “5-HETEROARYL-PYRIDIN-2-AMINE COMPOUNDS AS NEUROPEPTIDE FF RECEPTOR ANTAGONISTS” (Domain Therapeutics, priority 2019, published 2022).
# How the values were obtained:
# [1] = target: T1, human NPFFR1 (hNPFFR1) receptor (Homo sapiens, UniProt Q9GZQ6); assay: Human NPFFR1 evaluation using BRET biosensors (antagonist IC50); format: cell-based; conditions: hNPFFR1 transiently over-expressed in HEK-293 T cells; BRET signal; stimulation by EC80 RFRP-3
# T1 construct: expressed in transfected cells; host or cells: HEK-293 T cells, transient co-transfection with polyethylenimine
# In short: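 HEK-293T cells co-transfected with receptor, GαoB and Gi-effector BRET biosensor pair, assayed 48 h later. Compound 10 min, then EC80 RFRP-3 with 10 min luminescence read; IC50 from 20-concentration variable-slope fit, duplicate, two independent experiments.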
# T1 sequence (Q9GZQ6 whole entry): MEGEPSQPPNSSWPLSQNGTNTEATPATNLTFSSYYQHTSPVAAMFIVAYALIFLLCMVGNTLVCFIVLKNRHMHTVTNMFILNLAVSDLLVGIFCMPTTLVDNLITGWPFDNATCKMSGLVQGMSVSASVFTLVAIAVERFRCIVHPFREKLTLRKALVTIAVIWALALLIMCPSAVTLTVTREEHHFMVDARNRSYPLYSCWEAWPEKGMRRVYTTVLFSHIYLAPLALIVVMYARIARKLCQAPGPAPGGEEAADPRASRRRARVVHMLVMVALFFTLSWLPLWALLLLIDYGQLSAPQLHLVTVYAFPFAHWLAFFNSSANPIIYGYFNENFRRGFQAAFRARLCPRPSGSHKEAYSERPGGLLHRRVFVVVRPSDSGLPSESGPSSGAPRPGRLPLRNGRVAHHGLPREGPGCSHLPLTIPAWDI
SMILES,IC50 [1],melting point
"CCc1nc(N)ccc1-c1ccccc1-c1ccc(O)nc1.Cl [Example 88, 5-(2-(6-amino-2-ethylpyridin-3-yl)phenyl)pyridin-2-ol]",0.1 to 1 µM,95 to 120 °C
"Cl.Nc1ccc(-c2cccc3cccnc23)c(C2CC2)n1 [Example 14, 6-Cyclopropyl-5-(8-quinolyl)pyridin-2-amine]",0.1 to 1 µM,> 250 °C
"CCc1nc(N)ccc1-c1cccc2ccc(N3CCCOCC3)nc12.Cl [Example 133, 5-(2-(1,4-oxazepan-4-yl)quinolin-8-yl)-6-ethylpyridin-2-amine]",< 0.1 µM,50 to 90 °C
"CCc1nc(N)ccc1-c1cccc2ccc(N)nc12.Cl.Cl [Example 92, 8-(6-amino-2-ethylpyridin-3-yl)quinolin-2-amine]",0.1 to 1 µM,200 to 250 °C
"CCc1nc(N)ccc1-c1c(F)ccc2cccnc12.Cl [Example 65, 6-ethyl-5-(7-fluoroquinolin-8-yl)pyridin-2-amine]",< 0.1 µM,150 to 195 °C
"CCc1nc(N)ccc1-c1cccc2ccnn12.Cl [Example 104, 6-ethyl-5-(pyrazolo[1,5-a]pyridin-7-yl)pyridin-2-amine]",0.1 to 1 µM,234 to 243 °C
"CCc1nc(N)ccc1-c1cccc2ccc(C)nc12.Cl [Example 90, 6-ethyl-5-(2-methylquinolin-8-yl)pyridin-2-amine]",< 0.1 µM,110 to 150 °C
"Nc1ccc(-c2cnn3ccccc23)c(N)n1 [Example 19, 3-Pyrazolo[1,5-a]pyridin-3-ylpyridine-2,6-diamine]",> 1 µM,195 to 200 °C
"CCc1nc(N)ccc1-c1cccc2ccc(C3(C)CC3)nc12.Cl [Example 120, 6-ethyl-5-(2-(1-methylcyclopropyl)quinolin-8-yl)pyridin-2-amine]",0.1 to 1 µM,90 to 95 °C
"CCc1nc(N)ccc1-c1c(F)ccc2c1OCCCC2.Cl [Example 179, 6-ethyl-5-(8-fluoro-2,3,4,5-tetrahydrobenzo[b]oxepin-9-yl)pyridin-2-amine]",< 0.1 µM,47 to 65 °C
"CCc1nc(N)ccc1-c1cccc2cccnc12.Cl [Example 47, 6-ethyl-5-(quinolin-8-yl)pyridin-2-amine]",< 0.1 µM,> 250 °C
"Cl.Nc1ccc(-c2cccc3ccoc23)c(N)n1 [Example 50, 3-(benzofuran-7-yl)pyridine-2,6-diamine]",0.1 to 1 µM,> 250 °C
"CCc1nc(N)ccc1-c1cccc2ccc(N3CCOCC3)nc12.Cl [Example 129, 6-ethyl-5-(2-morpholinoquinolin-8-yl)pyridin-2-amine]",< 0.1 µM,100 to 150 °C
"CCc1nc(N)ccc1-c1cc(C)cc2cccnc12.Cl [Example 77, 6-ethyl-5-(6-methylquinolin-8-yl)pyridin-2-amine]",< 0.1 µM,100 to 140 °C
"CCc1nc(N)ccc1-c1cccc2c1N(C)CC2.Cl [Example 162, 6-ethyl-5-(1-methylindolin-7-yl)pyridin-2-amine]",0.1 to 1 µM,> 250 °C
"CC(C)Cc1nc(N)ccc1-c1c(F)ccc2cccnc12.Cl [Example 70, 5-(7-fluoroquinolin-8-yl)-6-isobutylpyridin-2-amine]",< 0.1 µM,130 to 170 °C
"CCc1nc(N)ccc1-c1c(F)ccc2ccc(N3CCOCC3)nc12.Cl [Example 135, 6-ethyl-5-(7-fluoro-2-morpholinoquinolin-8-yl)pyridin-2-amine]",< 0.1 µM,100 to 146 °C
"CCc1nc(N)ccc1-c1cccc2c1NC(=O)C2.Cl [Example 163, 7-(6-amino-2-ethylpyridin-3-yl)indolin-2-one]",0.1 to 1 µM,> 250 °C
"CCc1nc(N)ccc1-c1cccc2ccc(N3CCC(F)(F)CC3)nc12.Cl [Example 132, 5-(2-(4,4-difluoropiperidin-1-yl)quinolin-8-yl)-6-ethylpyridin-2-amine]",< 0.1 µM,120 to 141 °C

# More lines, now with the values ahead:
IC50 [1],melting point,SMILES
< 0.1 µM,95 to 120 °C,"CCc1nc(N)ccc1-c1c(F)ccc2ccc(C)nc12.Cl [Example 76, 6-ethyl-5-(7-fluoro-2-methylquinolin-8-yl)pyridin-2-amine]"
> 1 µM,160 to 200 °C,"CCc1nc(N)ccc1-c1nccc2cccnc12.Cl [Example 100, 6-ethyl-5-(1,7-naphthyridin-8-yl)pyridin-2-amine]"
0.1 to 1 µM,200 to 215 °C,"Cl.Nc1ccc(-c2cccc3ccncc23)c(C2CC2)n1 [Example 15, 6-Cyclopropyl-5-(8-isoquinolyl)pyridin-2-amine]"
< 0.1 µM,102 to 114 °C,"CCc1nc(N)ccc1-c1cccc2ccc(C(=O)NCc3ccccc3)nc12.Cl [Example 174, 8-(6-amino-2-ethylpyridin-3-yl)-N-benzylquinoline-2-carboxamide]"
< 0.1 µM,70 to 130 °C,"Cl.Nc1ccc(-c2c(F)ccc3cccnc23)c(CCCC(F)(F)F)n1 [Example 71, 5-(7-fluoroquinolin-8-yl)-6-(4,4,4-trifluorobutyl)pyridin-2-amine]"
< 0.1 µM,> 250 °C,"CCc1nc(N)ccc1-c1cccc2ccc(-c3ccncc3)nc12.Cl [Example 122, 6-ethyl-5-(2-(pyridin-4-yl)quinolin-8-yl)pyridin-2-amine]"
> 1 µM,> 250 °C,"CN1Cc2c(cccc2-c2ccc(N)nc2N)C1=O [Example 27, 4-(2,6-Diamino-3-pyridyl)-2-methyl-isoindolin-1-one]"
< 0.1 µM,170 to 207 °C,"Cl.Nc1ccc(-c2c(F)ccc3cccnc23)c(CC2CC2)n1 [Example 72, 6-(cyclopropylmethyl)-5-(7-fluoroquinolin-8-yl)pyridin-2-amine]"
< 0.1 µM,140 to 144 °C,"CCc1nc(N)ccc1-c1cccc2ccc(C(=O)N3CCCCCC3)nc12.Cl [Example 169, (8-(6-amino-2-ethylpyridin-3-yl)quinolin-2-yl)(azepan-1-yl)methanone]"
0.1 to 1 µM,147 to 160 °C,"CCc1nc(N)ccc1-c1cccc2c1NCCC2.Cl [Example 106, 6-ethyl-5-(1,2,3,4-tetrahydroquinolin-8-yl)pyridin-2-amine]"
< 0.1 µM,230 to 250 °C,"CCc1nc(N)ccc1-c1c(OC)ccc2cccnc12.Cl [Example 98, 6-ethyl-5-(7-methoxyquinolin-8-yl)pyridin-2-amine]"
0.1 to 1 µM,64 to 88 °C,"CCc1nc(N)ccc1-c1csc2ccc(C)cc12.Cl [Example 42, 6-Ethyl-5-(5-methylbenzothiophen-3-yl)pyridin-2-amine]"
0.1 to 1 µM,> 250 °C,"CCc1nc(N)ccc1-c1cccc2nccnc12.Cl [Example 101, 6-ethyl-5-(quinoxalin-5-yl)pyridin-2-amine]"
< 0.1 µM,210 to 225 °C,"CCc1nc(N)ccc1-c1cccc2ccc(COC)nc12.Cl [Example 142, 6-ethyl-5-(2-(methoxymethyl)quinolin-8-yl)pyridin-2-amine]"
< 0.1 µM,> 250 °C,"Cl.Nc1ccc(-c2cc(F)cc3cccnc23)c(N)n1 [Example 52, 3-(6-fluoroquinolin-8-yl)pyridine-2,6-diamine]"
0.1 to 1 µM,233 to 237 °C,"CCc1nc(N)ccc1-c1cccc2c1NC(=O)CC2.Cl [Example 155, 8-(6-amino-2-ethylpyridin-3-yl)-3,4-dihydroquinolin-2(1H)-one]"
< 0.1 µM,43 to 52 °C,"CCc1nc(N)ccc1-c1c(F)ccc2c1OCC=CC2.Cl [Example 178, 6-ethyl-5-(8-fluoro-2,5-dihydrobenzo[b]oxepin-9-yl)pyridin-2-amine]"
< 0.1 µM,130 to 135 °C,"CCc1nc(N)ccc1-c1cccc2ccc(C(=O)N3CCOCC3)nc12.Cl [Example 166, (8-(6-amino-2-ethylpyridin-3-yl)quinolin-2-yl)(morpholino)methanone]"
< 0.1 µM,160 to 172 °C,"CCc1nc(N)ccc1-c1cccc2cc3c(nc12)CCCC3.Cl [Example 113, 6-ethyl-5-(5,6,7,8-tetrahydroacridin-4-yl)pyridin-2-amine]"
0.1 to 1 µM,109 to 112 °C,"Nc1ccc(-c2coc3ccccc23)c(N)n1 [Example 20, 3-(Benzofuran-3-yl)pyridine-2,6-diamine]"
< 0.1 µM,100 to 125 °C,"CCc1nc(N)ccc1-c1cccc2ccc(C(=O)N3CCCC3)nc12.Cl [Example 141, (8-(6-amino-2-ethylpyridin-3-yl)quinolin-2-yl)(pyrrolidin-1-yl)methanone]"
< 0.1 µM,120 to 160 °C,"CCc1nc(N)ccc1-c1c(OC(F)F)ccc2cccnc12.Cl [Example 105, 5-(7-(difluoromethoxy)quinolin-8-yl)-6-ethylpyridin-2-amine]"
< 0.1 µM,210 to 245 °C,"CCc1nc(N)ccc1-c1cccc2cc(F)cnc12.Cl [Example 97, 6-ethyl-5-(3-fluoroquinolin-8-yl)pyridin-2-amine]"
< 0.1 µM,80 to 90 °C,"CCc1nc(N)ccc1-c1c(F)ccc2c1OC(C)(C)CC2.Cl [Example 177, 6-ethyl-5-(7-fluoro-2,2-dimethylchroman-8-yl)pyridin-2-amine]"
< 0.1 µM,35 to 70 °C,"CCOc1ccc2cccc(-c3ccc(N)nc3CC)c2n1.Cl [Example 94, 5-(2-ethoxyquinolin-8-yl)-6-ethylpyridin-2-amine]"
